The results in this text go back to US10266497B2 (ABIDE THERAPEUTICS, INC., priority 2017, dated 2019).

Test [1] deals with T1, MAGL (Homo sapiens, UniProt Q99685).
T1 sequence (Q99685 1-303): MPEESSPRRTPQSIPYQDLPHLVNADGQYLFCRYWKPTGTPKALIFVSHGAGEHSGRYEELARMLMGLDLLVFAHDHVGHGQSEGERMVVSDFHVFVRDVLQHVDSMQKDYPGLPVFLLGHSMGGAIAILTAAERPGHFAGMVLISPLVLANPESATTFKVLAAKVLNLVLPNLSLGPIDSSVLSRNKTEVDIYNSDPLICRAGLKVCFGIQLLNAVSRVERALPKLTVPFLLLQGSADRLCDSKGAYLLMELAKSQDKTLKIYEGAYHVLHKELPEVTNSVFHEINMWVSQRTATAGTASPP
Description: In vitro competitive activity-based protein profiling, MAGL, human. As to conditions: for inhibition at 1 µM: read-out: MAGL % inh. 1 μM (human).
Description: Biological Evaluation In Vitro Competitive Activity-Based Protein Profiling.
Proteomes (mouse brain membrane fraction for mouse assays; human prefrontal cortex membrane fractions for human assays) (50 mL, 1.0 mg/mL total protein concentration) were preincubated with varying concentrations of inhibitors at 37° C. After 30 min, FP-Rh (1.0 mL, 50 mM in DMSO) was added and the mixture was incubated for another 30 min at 37° C. Reactions were quenched with SDS loading buffer (15 μL—4λ) and run on SDS-PAGE.

Test [2] has as its target T2, MAGL (Mus musculus, UniProt O35678).
T2 sequence (O35678 1-303): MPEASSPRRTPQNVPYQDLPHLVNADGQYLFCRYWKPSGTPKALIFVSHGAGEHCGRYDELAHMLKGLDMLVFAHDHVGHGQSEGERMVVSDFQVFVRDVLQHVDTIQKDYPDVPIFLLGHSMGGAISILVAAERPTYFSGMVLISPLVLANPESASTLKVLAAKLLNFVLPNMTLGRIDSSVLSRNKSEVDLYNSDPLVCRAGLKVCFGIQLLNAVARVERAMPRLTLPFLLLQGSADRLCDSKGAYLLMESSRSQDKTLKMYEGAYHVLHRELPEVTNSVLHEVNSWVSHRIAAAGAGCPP
The experiment in a line: In vitro competitive activity-based protein profiling, MAGL, mouse. The following applies: read-out: MAGL % inh. 1 μM (mouse).

Take `O=C(O)c1ccn(C(=O)N2C[C@H]3C[C@H](Oc4cccc(N5CCCC5)c4)C[C@H]3C2)n1` [Example 234, 1-(trans-5-(3-(pyrrolidin-1-yl)phenoxy)octa-hydrocyclopenta[c]pyrrole-2-carbonyl)-1H-pyrazole-3-carboxylic acid]: the inhibition at 1 µM on MAGL [1] and on MAGL [2] was over 75% in each case.
In the case of `O=C(O)c1ccn(C(=O)N2C[C@H]3C[C@@H](OCc4cccc(-c5ccccc5)c4)C[C@H]3C2)n1` [Example 279, 1-(cis-5-([1,1′-biphenyl]-3-ylmethoxy)octa-hydrocyclopenta[c]pyrrole-2-carbonyl)-1H-pyrazole-3-carboxylic acid], the inhibition at 1 µM at MAGL [1] and on MAGL [2] was over 75% in each case.
As for `O=C(O)c1ccn(C(=O)N2CCC3(CCN(Cc4cccc(C(F)(F)F)c4)CC3)C2)n1` [Example 287, 1-(8-(3-(trifluoromethyl)benzyl)-2,8-diazaspiro[4.5]decane-2-carbonyl)-1H-pyrazole-3-carboxylic acid], the inhibition at 1 µM at MAGL [1] lay within 25 to 50%; on MAGL [2] it was 0 to 25%.
Take `O=C(O)c1nn(C(=O)N2CCN(Cc3cc(Cl)cc(-c4cncnc4)c3)CC2)cc1Cl` [Example 323, 4-chloro-1-(4-(3-chloro-5-(pyrimidin-5-yl)benzyl)piperazine-1-carbonyl)-1H-pyrazole-3-carboxylic acid]: the inhibition at 1 µM on MAGL [1] and on MAGL [2] was over 75% throughout.
As to `C[C@@H]1CN(Cc2ccc(F)c(Oc3ccccc3)c2)CCN1C(=O)n1ccc(C(=O)O)n1` [Example 294, (R)-1-(4-(4-fluoro-3-phenoxybenzyl)-2-methylpiperazine-1-carbonyl)-1H-pyrazole-3-carboxylic acid], the inhibition at 1 µM on MAGL [1] and at MAGL [2] was over 75% in each case.
Consider `C[C@H]1CN(Cc2cccc(OCC(C)(C)O)c2Cl)CCN1C(=O)n1ccc(C(N)=O)n1` [Example 450, (S)-1-(4-(2-chloro-3-(2-hydroxy-2-methylpropoxy)benzyl)-2-methylpiperazine-1-carbonyl)-1H-pyrazole-3-carboxamide], for which the inhibition at 1 µM on MAGL [1] and on MAGL [2] was over 75% throughout.
For the compound `O=C(O)c1ccn(C(=O)N2CCC3(CCN(C(=O)c4cc(Cl)ccc4C(F)(F)F)C3)CC2)n1` [Example 366, 1-(2-(5-chloro-2-(trifluoromethyl)benzoyl)-2,8-diazaspiro[4.5]decane-8-carbonyl)-1H-pyrazole-3-carboxylic acid], the inhibition at 10 µM at MAGL [1] (read-out: MAGL % inh. (human) at 10 uM) was over 75%. Also, the inhibition at 1 µM on MAGL [2] was in the range of 0 to 25%.
For `NC(=O)c1ccn(C(=O)N2CCC3(CCN(Cc4cc5ccc(C(F)(F)F)cc5s4)C3)CC2)n1` [Example 377, 1-(2-((6-(trifluoromethyl)benzo[b]thiophen-2-yl)methyl)-2,8-diazaspiro[4.5]decane-8-carbonyl)-1H-pyrazole-3-carboxamide], the inhibition at 1 µM at MAGL [1] and on MAGL [2] was 0 to 25% each time.
Regarding `NC(=O)c1ccn(C(=O)N2CCN(Cc3cccc(C4(C(=O)O)CCOCC4)c3)CC2)n1` [Example 455, 4-(3-((4-(3-carbamoyl-1H-pyrazole-1-carbonyl)piperazin-1-yl)methyl)phenyl) tetrahydro-2H-pyran-4-carboxylic acid], the inhibition at 1 µM at MAGL [1] and at MAGL [2] was over 75% each time.
On to `NC(=O)c1ccn(C(=O)N2CCC3(CCCN3C(=O)c3cc4ccc(C(F)(F)F)cc4s3)CC2)n1` [Example 389, 1-(1-(6-(trifluoromethyl)benzo[b]thiophene-2-carbonyl)-1,8-diazaspiro[4.5]decane-8-carbonyl)-1H-pyrazole-3-carboxamide], for which the inhibition at 1 µM on MAGL [1] and on MAGL [2] was over 75% in each case.
Take `O=C(O)c1ccn(C(=O)N2CCN(Cc3ccc(F)c(Oc4ccccc4)c3)CC2)n1` [Example 263, 1-(4-(4-fluoro-3-phenoxybenzyl)pi-perazine-1-carbonyl)-1H-pyrazole-3-carboxylic acid]: the inhibition at 1 µM at MAGL [1] and at MAGL [2] was over 75% throughout.
In the case of `O=C(O)c1nn(C(=O)N2CCN(Cc3cc(F)cc(Oc4ccc(Cl)cc4)c3)CC2)cc1C(F)(F)F` [Example 408], the inhibition at 1 µM on MAGL [1] and at MAGL [2] was over 75% each time.
In the case of `Cc1cn(C(=O)N2C[C@H]3C[C@H](Oc4cccc(-c5ccccc5)c4)C[C@H]3C2)nc1C(=O)O` [Example 280, 1-(trans-5-([1,1′-biphenyl]-3-yloxy)octahydro-cyclopenta[c]pyrrole-2-carbonyl)-4-methyl-1H-pyrazole-3-carboxylic acid], the inhibition at 1 µM on MAGL [1] and at MAGL [2] was over 75% throughout.
Take `O=C(O)c1ccn(C(=O)N2CCC3(CCN(Cc4cccc(Cl)c4C(F)(F)F)C3)CC2)n1` [Example 340, 1-(2-(3-chloro-2-(trifluoromethyl)benzyl)-2,8-diazaspiro[4.5]decane-8-carbonyl)-1H-pyrazole-3-carboxylic acid]: the inhibition at 1 µM on MAGL [1] and at MAGL [2] was over 75% throughout.
Consider `O=C(O)c1ccn(C(=O)N2CCC(OCc3cc(Cl)cc(C(F)(F)F)c3)CC2)n1` [Example 275, 1-(4-((3-chloro-5-(trifluoromethyl)benzyl)oxy)piper-idine-1-carbonyl)-1H-pyrazole-3-carboxylic acid], for which the inhibition at 1 µM on MAGL [1] and on MAGL [2] was over 75% throughout.
Take `CN(Cc1cccc(C(F)(F)F)c1)C1(C)CCN(C(=O)n2ccc(C(N)=O)n2)CC1` [Example 258, 1-(4-methyl-4-(methyl(3-(trifluoromethyl)benzyl)amino)piper-idine-1-carbonyl)-1H-pyrazole-3-carboxamide]: the inhibition at 1 µM at MAGL [1] and on MAGL [2] was over 75% each time.
For `C[C@H]1C[C@@H](N(C)Cc2cccc(C(F)(F)F)c2)CCN1C(=O)n1ccc(C(N)=O)n1` [Example 24, 1-((2S,4S)-2-Methyl-4-(methyl(3-(trifluoromethyl)benzyl)amino)piperidine-1-carbonyl)-1H-pyrazole-3-carboxamide], the inhibition at 1 µM at MAGL [1] and at MAGL [2] was over 75% in each case.
With `Cc1c(CN2CCC3(CCN(C(=O)n4ccc(C(=O)O)n4)CC3)C2)cccc1-c1ccccc1` [Example 322, 1-(2-((2-methyl-[1,1′-biphenyl]-3-yl)methyl)-2,8-diazaspiro[4.5]decane-8-carbonyl)-1H-pyrazole-3-carboxylic acid], the inhibition at 1 µM on MAGL [1] and on MAGL [2] was over 75% in each case.
On to `O=C(O)c1ccn(C(=O)N2CCC3(CC2)CN(Cc2cc(Cl)ccc2C(F)(F)F)C3)n1` [Example 313, 1-(2-(5-chloro-2-(trifluoromethyl)benzyl)-2,7-diazaspiro[3.5]non-ane-7-carbonyl)-1H-pyrazole-3-carboxylic acid], for which the inhibition at 1 µM on MAGL [1] and on MAGL [2] was over 75% throughout.
In the case of `O=C(O)c1nn(C(=O)N2CC3CN(Cc4cc(Cl)cc(C(F)(F)F)c4)CC3C2)cc1Cl` (stereo not shown) [Example 357, 4-chloro-1-(5-(3-chloro-5-(trifluoromethyl)benzyl)octahydro-pyrrolo[3,4-c]pyrrole-2-carbonyl)-1H-pyrazole-3-carboxylic acid], the inhibition at 1 µM on MAGL [1] and at MAGL [2] was over 75% throughout.
